According to patent US8679776B2, “Activatable dyes” (University of Massachusetts, priority 2007, dated 2014):

How the values were obtained:
[1] = Photoactivation of NVOC-Oxazine 16 in vitro (acetonitrile solution, long-wave UV); assay type: physicochemical
Description: When novel, non-fluorescent caged dye (16) is irradiated with long-wave UV light (about 360 nm), the NVOC group is photolytically removed, and rapidly decarboxylates to form the oxazine 1 leuco dye (15). The non-fluorescent leuco dye rapidly reacts with oxygen in solution to generate the brightly fluorescent oxazine 1 dye (14). […] In such an evaluation, maximal emission was observed after less than four minutes using a hand-held longwave UV lamp. Irradiation in a fluorescence microscope, with either arc lamp or laser illumination, photoactivates this dye in less than 1 second due to the much higher photon flux through the microscope objective.
Referring to FIGS. 15A and 15B, NVOC-Oxazine 16 was dissolved in acetonitrile (2 mL) and placed in a fluorescence cuvette. The rate of photo-uncaging was monitored by continuous excitation at 365 nm and emission detection at 665 nm in a SPEX Fluoromax-3. Under these conditions, fluorescence activation reached a maximum in approximately two minutes.

[2] = system: CHO-K1 cells; assay: Photoactivation in live mammalian tissue culture cells; assay type: cell-based
Description: Photoactivation of NVOC-MR121 in live CHO-K1 cells before (a) and after (b, c) brief exposure to DAPI-filtered light (˜100 ms). In (b) the field was limited to two cells, while in (c) the entire field was illuminated (40× objective). Cells were imaged with a Cy5 filter set.
Referring to FIGS. 16A (before) and 16B (after photoactivation), CHO-K1 cells were incubated with 1 μM of NVOC-Oxazine 16 for one hour, then imaged on a fluorescence microscope at 40× with a Cy5 filter set (Zeiss Axiovert 200M). […] All of these latent fluorophores are chemically stable in cells, and can be efficiently photoactivated 24 hours after initial incubation.

[3] = biological target: T1, Transferrin (Homo sapiens, UniProt P02787); assay: Labeling of transferrin with caged dye, SDS-PAGE imaged before and after photoactivation; conditions: for near-IR fluorescence before photoactivation / near-IR fluorescence after photoactivation: 630 nm excitation, 670 nm long pass filter; for near-IR fluorescence after photoactivation: hand-held longwave UV lamp for 1 min
T1 construct: purchased Sigma-Aldrich
Description: FIG. 20 is an SDS-PAGE gel of transferrin labeled with a caged oxazine dye, imaged before and after photoactivation. Transferrin in lanes 1-3 is labeled with NVOC-MR121 (25). Lanes 4-6 are labeled with tetramethyl-rhodamine (TMR).
Transferrin (Sigma-Aldrich®, 5 mg) was dissolved in 0.5 ml of 0.1M NaHCO3, pH 8.3. The caged oxazine dye 25 (0.2 mg) in 0.02 ml of DMSO and added to the transferrin solution and incubated at room temperature for one hour. The labeled protein was separated from the dye on a PD-10 column, and analyzed by SDS-PAGE (FIG. 20). The transferrin conjugate was initially non-fluorescent (FIG. 20a).

T1 sequence (P02787 20-698, species assumed): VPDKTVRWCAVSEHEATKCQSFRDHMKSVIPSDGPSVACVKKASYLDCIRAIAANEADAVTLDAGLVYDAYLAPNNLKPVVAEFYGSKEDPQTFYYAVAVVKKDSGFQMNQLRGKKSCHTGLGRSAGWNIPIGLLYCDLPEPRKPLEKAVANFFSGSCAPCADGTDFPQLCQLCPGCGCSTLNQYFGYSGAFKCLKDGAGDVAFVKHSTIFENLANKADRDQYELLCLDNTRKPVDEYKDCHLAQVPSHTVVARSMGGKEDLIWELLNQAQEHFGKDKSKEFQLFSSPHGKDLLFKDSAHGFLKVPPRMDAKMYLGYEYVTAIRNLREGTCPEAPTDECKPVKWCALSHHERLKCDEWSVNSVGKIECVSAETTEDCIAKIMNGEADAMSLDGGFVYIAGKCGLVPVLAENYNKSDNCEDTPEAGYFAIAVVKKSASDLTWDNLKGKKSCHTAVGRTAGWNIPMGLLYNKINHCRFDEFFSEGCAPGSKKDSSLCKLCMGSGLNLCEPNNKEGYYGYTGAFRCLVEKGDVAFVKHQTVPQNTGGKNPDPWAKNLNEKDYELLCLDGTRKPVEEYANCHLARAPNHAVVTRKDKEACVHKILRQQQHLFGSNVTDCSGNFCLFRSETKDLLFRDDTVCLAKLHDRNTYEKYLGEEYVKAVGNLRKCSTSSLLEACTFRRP

Molecule: CCN(CC)c1ccc2nc3ccc(=[N+](CC)CC)cc-3oc2c1.[O-][Cl+3]([O-])([O-])[O-] [oxazine 1, reference compound]
- maximal emission ([1]; active dye generated by uncaging): about 665 nm

Molecule: Bis-NH NVOC-Oxazine [Compound 41]
- staining pattern after photoactivation [2]: more diffuse staining

Molecule: NVOC-Oxazine [Compound 16]
- cell permeability [2]: cell-permeable
- cellular fluorescence after brief exposure to DAPI-filtered light ([2]; 1 μM, one hour incubation, 365 nm, <1 second, Cy5 filter set): dramatic increase in cellular fluorescence
- time to maximal emission after exposure to long-wave UV light ([1]; acetonitrile solution, hand-held longwave UV lamp, emission about 665 nm): less than four
- time for fluorescence activation to reach a maximum ([1]; acetonitrile, continuous excitation at 365 nm, emission detection at 665 nm, SPEX Fluoromax-3): approximately two
- time to photoactivate in a fluorescence microscope ([1]; arc lamp or laser illumination through the microscope objective): less than 1 second

Molecule: TMR-Tf: transferrin labeled with tetramethyl-rhodamine (TMR) [reference compound]
- fluorescence before photoactivation, TMR channel ([3]; SDS-PAGE, 520 nm excitation and 575DF20 filter): readily visible

Molecule: transferrin conjugate: transferrin labeled with caged oxazine dye NVOC-MR121 NHS ester 25
- near-IR fluorescence before photoactivation ([3]; SDS-PAGE): non-fluorescent
- near-IR fluorescence before photoactivation ([3]; SDS-PAGE, listed as labeled transferrin): No near-IR fluorescence is visible
- near-IR fluorescence after photoactivation [3]: bright near-IR fluorescence
- near-IR fluorescence after photoactivation ([3]; listed as labeled transferrin): brightly fluorescent in the near-IR
